Common to all, as to type: cell-based
Assay [1] concerns L1210 mouse leukemia carcinoma cells. Nature of the assay: cytotoxicity / inhibition of cell proliferation in L1210 leukemia cells.
Assay [2] concerns KB-3-1. Nature of the assay: killing of drug sensitive (non-MDR) KB-3-1 cells. Particulars: Homo sapiens.
In assay [3] the test system is KB-V1. Put plainly: killing of multidrug resistant KB-V1 cells. Particulars: for IC50: Homo sapiens.
Assay [4] deals with A2780 human ovarian carcinoma. Nature of the assay: cytotoxicity in A2780 human ovarian carcinoma cells.
Where [5] appears, read: L1210, read-out: L1210 (IC50 μg/ml).
Setting [6] is: L1210 leukemia, Table I, 50% inhibition of cell proliferation vs untreated control, read-out: L1210 (IC50 μg/ml).
Setting [7] is: KB-3-1 drug sensitive cells, Table III, read-out: KB-3-1 (IC50; nM).
Where [8] appears, read: KB-V1 multidrug resistant cells, Table III, read-out: KB-V1 (IC50; nM).
Setting [9] is: ratio of IC50 KB-V1 to IC50 KB-3-1.
The mark [10] stands for this setting: KB 3-1, read-out: KB-3-1 (IC50; nM).
Where [11] appears, read: KB-V1, read-out: KB-V1 (IC50; nM).
The mark [12] stands for this setting: Homo sapiens, A2780, read-out: A2780 (IC50 μg/ml).
[13] abbreviates: A2780 human ovarian carcinoma, Table II, read-out: A2780 (IC50 μg/ml).

SMILES strings stand for the structures. In brackets after ≈: the same amount, converted by molar mass. Where two headings read alike, the source gives them in different places.

On to `CC[Si](CC)(CC)O[C@H]1C[C@H]2OC[C@@]2(OC(C)=O)[C@H]2[C@H](OC(=O)c3ccccc3)[C@]3(O)CC(OC(=O)[C@H](O)[C@@H](NC(=O)OC(C)(C)C)c4ccccc4)=C(C)[C@H]([C@@H](OC(C)=O)C(=O)[C@]12C)C3(C)C` [Compound 6, 7-TES-13-(N-Boc-β-phenylisoserinyl)-Δ^12,13-iso-baccatin III], for which, in assay [1] (setting [5]), the IC50 was more than 0.1 µg/mL.

`CC(=O)O[C@H]1C(=O)[C@@]2(C)[C@H]([C@H](OC(=O)c3ccccc3)[C@]3(O)CC(OC(=O)[C@H](O)[C@@H](NC(=O)OC(C)(C)C)c4ccccc4)=C(C)[C@H]1C3(C)C)[C@]1(OC(C)=O)CO[C@@H]1C[C@@H]2O` [Compound 7, 13-(N-Boc-β-phenylisoserinyl)-Δ^12,13-iso-baccatin III]: the IC50 in assay [1] (setting [6]) was determined as 0.0046 µg/mL (≈ 5.41 nM); in assay [2] (setting [7]), 0.2 nM; in assay [3] (setting [8]), 40 nM. Also, in assay [3] (setting [9]), the “Ratio: KBV-1/KB-3-1” value amounted to 228.

`CC(=O)O[C@@]12CO[C@@H]1C[C@H](O)[C@@]1(C)C(=O)[C@H](O)[C@H]3C(C)=C(OC(=O)[C@H](O)[C@@H](NC(=O)OC(C)(C)C)c4ccccc4)C[C@@](O)([C@@H](OC(=O)c4ccccc4)[C@H]21)C3(C)C` [Compound 8, 10-deacetyl-13-(N-Boc-β-phenylisoserinyl)-Δ^12,13-iso-baccatin III]: in assay [1] (setting [6]), the IC50 was 0.0059 µg/mL (≈ 7.3 nM).

Regarding `CC(=O)O[C@H]1C(=O)[C@]2(C)[C@@H](OC(=O)OCC(Cl)(Cl)Cl)C[C@H]3OC[C@@]3(OC(C)=O)[C@H]2[C@H](OC(=O)c2ccccc2)[C@]2(O)CC(OC(=O)[C@H](O)[C@@H](NC(=O)OC(C)(C)C)c3ccccc3)=C(C)[C@H]1C2(C)C` [Compound 12, 7-Troc-13-(N-Boc-β-phenylisoserinyl)-Δ^12,13-iso-baccatin III], in assay [1] (setting [5]), the IC50 was found to be 0.011 µg/mL (≈ 10.7 nM).

With `CC(=O)O[C@H]1C(=O)[C@]23C[C@H]2C[C@H]2OC[C@@]2(OC(C)=O)[C@H]3[C@H](OC(=O)c2ccccc2)[C@]2(O)CC(OC(=O)[C@H](OC(=O)OCC(Cl)(Cl)Cl)[C@@H](NC(=O)OC(C)(C)C)c3ccccc3)=C(C)[C@H]1C2(C)C` [Compound 14, 2'-Troc-13-(N-Boc-β-phenylisoserinyl)-7-deoxy-7b,8b-methano-Δ^12,13-iso-baccatin III], the IC50 in assay [1] (setting [5]) stood at 0.012 µg/mL (≈ 11.9 nM).

Take `CC(=O)O[C@H]1C(=O)[C@]2(C)C=C[C@H]3OC[C@@]3(OC(C)=O)[C@H]2[C@H](OC(=O)c2ccccc2)[C@]2(O)CC(OC(=O)[C@H](OC(=O)OCC(Cl)(Cl)Cl)[C@@H](NC(=O)OC(C)(C)C)c3ccccc3)=C(C)[C@H]1C2(C)C` [Compound 15, 2'-Troc-13-(N-Boc-β-phenylisoserinyl)-7-deoxy-Δ^6,7 -Δ^12,13-iso-baccatin III]: in assay [1] (setting [5]), the IC50 came to 0.0066 µg/mL (≈ 6.55 nM).

Turning to `CC(=O)O[C@H]1C(=O)[C@]2(C)C(F)C[C@H]3OC[C@@]3(OC(C)=O)[C@H]2[C@H](OC(=O)c2ccccc2)[C@]2(O)CC(OC(=O)[C@H](O)[C@@H](NC(=O)OC(C)(C)C)c3ccccc3)=C(C)[C@H]1C2(C)C` (stereo partly drawn) [Compound 16, 13-(N-Boc-β-phenylisoserinyl)-7-deoxy-7-fluoro-Δ^12,13-iso-baccatin III], the IC50 in assay [1] (setting [5]) amounted to 0.0029 µg/mL (≈ 3.4 nM).

In the case of `CC(=O)O[C@H]1C(=O)[C@]23C[C@H]2C[C@H]2OC[C@@]2(OC(C)=O)[C@H]3[C@H](OC(=O)c2ccccc2)[C@]2(O)CC(OC(=O)[C@H](O)[C@@H](NC(=O)OC(C)(C)C)c3ccccc3)=C(C)[C@H]1C2(C)C` [Compound 17, 13-(N-Boc-β-phenylisoserinyl)-7-deoxy-7β,8β-methano-Δ^12,13-iso-baccatin III], in assay [1] (L1210, read-out: IC90 (90% growth inhibitory concentration)), the IC90 worked out at 17 ng/mL (≈ 20.4 nM). Moreover, the figures for the IC50 in assay [1] (setting [5]), in assay [2] (setting [10]) and in assay [3] (setting [11]) were 0.0018 µg/mL (≈ 2.16 nM), 0.22 nM and 13 nM, respectively. Also, the “Ratio: KBV-1/KB-3-1” value in assay [3] (human, kb-v1 vs kb-3-1 cells) is 61.

Turning to `CC(=O)O[C@H]1C(=O)[C@]2(C)C=C[C@H]3OC[C@@]3(OC(C)=O)[C@H]2[C@H](OC(=O)c2ccccc2)[C@]2(O)CC(OC(=O)[C@H](O)[C@@H](NC(=O)OC(C)(C)C)c3ccccc3)=C(C)[C@H]1C2(C)C` [Compound 18, 13-(N-Boc-β-phenylisoserinyl)-7-deoxy-Δ^6,7 -Δ^12,13-iso-baccatin III], the IC50 in assay [1] (setting [5]) worked out at 0.0022 µg/mL (≈ 2.64 nM); in assay [2] (setting [10]), 0.2 nM; in assay [3] (setting [11]) it was 6.2 nM. Also, the “Ratio: KBV-1/KB-3-1” value in assay [3] (human, kb-v1 vs kb-3-1 cells) was 34.

Consider `CC[Si](CC)(CC)O[C@H]1C[C@H]2OC[C@@]2(OC(C)=O)[C@H]2[C@H](OC(=O)c3ccccc3)[C@]3(O)CC(OC(=O)[C@H](O)[C@@H](NC(=O)NC(C)(C)C)c4ccccc4)=C(C)[C@H]([C@@H](OC(C)=O)C(=O)[C@]12C)C3(C)C` [Compound 32a, 7-TES-13-(N-(t-butylaminocarbonyl)-β-phenylisoserinyl)-Δ^12,13-iso-baccatin III], for which the IC50 in assay [1] (setting [5]) is 0.07 µg/mL (≈ 72.7 nM).

Take `CC(=O)O[C@H]1C(=O)[C@@]2(C)[C@H]([C@H](OC(=O)c3ccccc3)[C@]3(O)CC(OC(=O)[C@H](O)[C@@H](NC(=O)NC(C)(C)C)c4ccccc4)=C(C)[C@H]1C3(C)C)[C@]1(OC(C)=O)CO[C@@H]1C[C@@H]2O` [Compound 32b, 13-(N-(t-butylaminocarbonyl)-β-phenylisoserinyl)-Δ^12,13-iso-baccatin III]: the IC50 amounted to 0.0053 µg/mL (≈ 6.24 nM) in assay [1] (setting [6]), 0.081 nM in assay [2] (setting [7]) and 1100 nM in assay [3] (setting [8]). For the same molecule, the “Ratio: KBV-1/KB-3-1” value in assay [3] (setting [9]) is listed as 17,650.

As to `CC(=O)O[C@H]1C(=O)[C@]23C[C@H]2C[C@H]2OC[C@@]2(OC(C)=O)[C@H]3[C@H](OC(=O)c2ccccc2)[C@]2(O)CC(OC(=O)[C@H](O)[C@@H](NC(=O)NC(C)(C)C)c3ccccc3)=C(C)[C@H]1C2(C)C` [Compound 36, 13-(N-(t-butylaminocarbonyl)-β-phenylisoserinyl)-7-deoxy-7β,8β-methano-Δ^12,13-iso-baccatin III], the IC50 in assay [2] (setting [7]) came out at 0.05 nM; in assay [3] (setting [8]), 360 nM. The “Ratio: KBV-1/KB-3-1” value in assay [3] (setting [9]) is 11,400.

On to `CC(=O)O[C@H]1C(=O)[C@]2(C)C=C[C@H]3OC[C@@]3(OC(C)=O)[C@H]2[C@H](OC(=O)c2ccccc2)[C@]2(O)CC(OC(=O)[C@H](O)[C@@H](NC(=O)NC(C)(C)C)c3ccccc3)=C(C)[C@H]1C2(C)C` [Compound 38, 13-(N-(t-butylaminocarbonyl)-β-phenylisoserinyl)-7-deoxy-Δ^6,7 -Δ^12,13-iso-baccatin III], for which the IC50 turned out to be 0.078 nM in assay [2] (setting [10]) and 360 nM in assay [3] (setting [11]). Besides, in assay [3] (human, kb-v1 vs kb-3-1 cells), the “Ratio: KBV-1/KB-3-1” value was 4,800.

Turning to `CCOCO[C@H]1C[C@H]2OC[C@@]2(OC(C)=O)[C@H]2[C@H](OC(=O)c3ccccc3)[C@]3(O)CC(OC(=O)[C@H](O)[C@@H](NC(=O)OC(C)(C)C)c4ccccc4)=C(C)[C@H]([C@@H](OC(C)=O)C(=O)[C@]12C)C3(C)C` [Compound 41, 7-(O-ethoxymethyl)-13-(N-Boc-β-phenylisoserinyl)-Δ^12,13-iso-baccatin III], the IC50 in assay [1] (setting [6]) was 0.0007 µg/mL (≈ 0.771 nM); in assay [2] (setting [7]), 0.011 nM; in assay [3] (setting [8]), 0.77 nM. In addition, the “Ratio: KBV-1/KB-3-1” value in assay [3] (setting [9]) came to 170.

Regarding `CCOCO[C@H]1C[C@H]2OC[C@@]2(OC(C)=O)[C@H]2[C@H](OC(=O)c3ccccc3)[C@]3(O)CC(OC(=O)[C@H](O)[C@@H](NC(=O)NC(C)(C)C)c4ccccc4)=C(C)[C@H]([C@@H](OC(C)=O)C(=O)[C@]12C)C3(C)C` [Compound 43, 7-(O-ethoxymethyl)-13-(N-(t-butylaminocarbonyl)-β-phenylisoserinyl)-Δ^12,13-iso-baccatin III], the IC50 in assay [1] (setting [6]) amounted to 0.0014 µg/mL (≈ 1.54 nM); in assay [3] (setting [8]), 120 nM. In addition, in assay [3] (setting [9]), the “Ratio: KBV-1/KB-3-1” value is given as 2.5 × 10^5.

On to `COCO[C@H]1C[C@H]2OC[C@@]2(OC(C)=O)[C@H]2[C@H](OC(=O)c3ccccc3)[C@]3(O)CC(OC(=O)[C@H](O)[C@@H](NC(=O)OCc4ccccc4)c4ccccc4)=C(C)[C@H]([C@@H](OC(C)=O)C(=O)[C@]12C)C3(C)C` [Compound 64, 7-(O-methoxymethyl)-13-(N-Cbz-β-phenylisoserinyl)-Δ^12,13-iso-baccatin III], for which, in assay [4] (setting [12]), the IC50 is 0.0029 µg/mL (≈ 3.13 nM).

Regarding `COCO[C@H]1C[C@H]2OC[C@@]2(OC(C)=O)[C@H]2[C@H](OC(=O)c3ccccc3)[C@]3(O)CC(OC(=O)[C@H](O)[C@@H](NC(=O)OC(C)(C)C)c4ccccc4)=C(C)[C@H]([C@@H](OC(C)=O)C(=O)[C@]12C)C3(C)C` [Compound 66, 7-(O-methoxymethyl)-13-(N-Boc-β-phenylisoserinyl)-Δ^12,13-iso-baccatin III], the IC50 in assay [4] (setting [13]) was 0.00026 µg/mL (≈ 0.291 nM); in assay [3] (setting [8]), 0.046 nM. For the same molecule, the “Ratio: KBV-1/KB-3-1” value in assay [3] (setting [9]) amounted to 300.

As for `COCO[C@H]1C[C@H]2OC[C@@]2(OC(C)=O)[C@H]2[C@H](OC(=O)c3ccccc3)[C@]3(O)CC(OC(=O)[C@H](O)[C@@H](NC(=O)NC(C)(C)C)c4ccccc4)=C(C)[C@H]([C@@H](OC(C)=O)C(=O)[C@]12C)C3(C)C` [Compound 67, 7-(O-methoxymethyl)-13-(N-t-butylaminocarbonyl-β-phenylisoserinyl)-Δ^12,13-iso-baccatin III], in assay [4] (setting [12]), the IC50 was 0.00042 µg/mL (≈ 0.47 nM).

Take `CSCO[C@H]1C[C@H]2OC[C@@]2(OC(C)=O)[C@H]2[C@H](OC(=O)c3ccccc3)[C@]3(O)CC(OC(=O)[C@H](O)[C@@H](NC(=O)NC(C)(C)C)c4ccccc4)=C(C)[C@H]([C@@H](OC(C)=O)C(=O)[C@]12C)C3(C)C` [Compound 72, 7-(O-methylthiomethyl)-13-(N-t-butylaminocarbonyl-β-phenylisoserinyl)-Δ^12,13-iso-baccatin III]: the IC50 in assay [4] (setting [12]) came out at 0.0004 µg/mL (≈ 0.44 nM).

As for `CO[C@H]1C[C@H]2OC[C@@]2(OC(C)=O)[C@H]2[C@H](OC(=O)c3ccccc3)[C@]3(O)CC(OC(=O)[C@H](O)[C@@H](NC(=O)NC(C)(C)C)c4ccccc4)=C(C)[C@H]([C@@H](OC(C)=O)C(=O)[C@]12C)C3(C)C` [Compound 73, 7-(O-methyl)-13-(N-t-butylaminocarbonyl-β-phenylisoserinyl)-Δ^12,13-iso-baccatin III], the IC50 in assay [4] (setting [13]) was 0.00039 µg/mL (≈ 0.452 nM).

Source of the values: patent publication US5821363A, “Antineoplastic use and pharmaceutical compositions containing them” (priority 1996, dated 1998).
